Source: ChEMBL document CHEMBL1201862, “PubChem BioAssay data set” (2004)
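How tested: cells in 96-well plates exposed to compound for 48 hours at five concentrations. At the GI50, growth is halved.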 The source made the active and inactive calls. No stated cut-off is given here; in the data, active = GI50 up to about 1.1 µM and inactive = higher.

What was measured:
Experiment in all cases: NCI tumour cell line growth inhibition, 48 h
A498 = test system: A498
A549 = test system: A549
DU-145 = test system: DU-145
HCT-15 = test system: HCT-15
HL-60 = test system: HL-60
MDA-MB-435 = test system: MDA-MB-435
NCI-H226 = test system: NCI-H226
NCI/ADR-RES = test system: NCI/ADR-RES
OVCAR-3 = test system: OVCAR-3
SF-268 = test system: SF-268
SF-295 = test system: SF-295
SK-MEL-28 = test system: SK-MEL-28
SNB-75 = test system: SNB-75
SR = test system: SR
U-251 = test system: U-251
UACC-62 = test system: UACC-62
CCRF-CEM = test system: CCRF-CEM
MDA-MB-231 = test system: MDA-MB-231
MOLT-4 = test system: MOLT-4

| Structure (SMILES) | GI50 (A498) | GI50 (A549) | GI50 (DU-145) | GI50 (HCT-15) [µM] | GI50 (HL-60) | GI50 (MDA-MB-435) | GI50 (NCI-H226) | GI50 (NCI/ADR-RES) | GI50 (OVCAR-3) | GI50 (SF-268) | GI50 (SF-295) | GI50 (SK-MEL-28) | GI50 (SNB-75) | GI50 (SR) | GI50 (U-251) | GI50 (UACC-62) | GI50 (CCRF-CEM) | GI50 (MDA-MB-231) | GI50 (MOLT-4) |
| --- | --- | --- | --- | --- | --- | --- | --- | --- | --- | --- | --- | --- | --- | --- | --- | --- | --- | --- | --- |
| CC1(C)CSCC(C)(C)C(=N/N)/C1=N\N | > 100 µM (inactive) | > 100 µM (inactive) | > 100 µM (inactive) | > 100 | > 100 µM (inactive) | > 100 µM (inactive) | > 100 µM (inactive) | > 100 µM (inactive) | > 100 µM (inactive) | > 100 µM (inactive) | > 100 µM (inactive) | > 100 µM (inactive) | > 100 µM (inactive) | > 100 µM (inactive) | > 100 µM (inactive) | > 100 µM (inactive) | – | – | – |
| O=c1[nH]nc(Cc2ccc(Cl)cc2)n1/N=C/c1ccco1 | > 100 µM (inactive) | > 100 µM (inactive) | > 100 µM (inactive) | > 100 | > 100 µM (inactive) | > 100 µM (inactive) | 84.5 µM (inactive) | 96.8 µM (inactive) | > 100 µM (inactive) | 38.3 µM (inactive) | 46.6 µM (inactive) | > 100 µM (inactive) | 28.6 µM (inactive) | > 100 µM (inactive) | 39.7 µM (inactive) | 74 µM (inactive) | > 100 µM (inactive) | 46.1 µM (inactive) | > 100 µM (inactive) |
| CC(=O)/C(=C/n1c(=S)sc2ccccc21)C(=O)Nc1ccccc1C | > 100 µM (inactive) | > 100 µM (inactive) | > 100 µM (inactive) | > 100 | 31.6 µM (inactive) | > 100 µM (inactive) | 31.1 µM (inactive) | > 100 µM (inactive) | 59.4 µM (inactive) | > 100 µM (inactive) | > 100 µM (inactive) | > 100 µM (inactive) | > 100 µM (inactive) | – | > 100 µM (inactive) | > 100 µM (inactive) | – | > 100 µM (inactive) | > 100 µM (inactive) |
| Cc1ccc(-n2nnc3c(NNc4ccccc4)n[nH]c(=O)c32)cc1 | – | 55.6 µM (inactive) | > 100 µM (inactive) | > 100 | 84.7 µM (inactive) | 74.6 µM (inactive) | 70 µM (inactive) | 76.7 µM (inactive) | – | > 10 µM (inactive) | 55.2 µM (inactive) | > 100 µM (inactive) | 36.6 µM (inactive) | > 100 µM (inactive) | 52.1 µM (inactive) | – | 92 µM (inactive) | 96.8 µM (inactive) | 44 µM (inactive) |
| O=C(N/N=C/c1ccccc1)c1c(-c2cccnc2)cnc2ccccc12 | – | > 100 µM (inactive) | > 100 µM (inactive) | 48 | 42.9 µM (inactive) | – | > 100 µM (inactive) | 69.5 µM (inactive) | > 100 µM (inactive) | > 100 µM (inactive) | 12 µM (inactive) | > 100 µM (inactive) | 34.8 µM (inactive) | 77.1 µM (inactive) | 56.4 µM (inactive) | 79.8 µM (inactive) | > 100 µM (inactive) | – | > 100 µM (inactive) |
| N#Cc1c(-c2ccc([N+](=O)[O-])cc2)cc(-c2ccc(Nc3ccnc4cc(Cl)ccc34)cc2)[nH]c1=O | > 100 µM (inactive) | > 100 µM (inactive) | > 100 µM (inactive) | > 100 | > 100 µM (inactive) | > 100 µM (inactive) | > 100 µM (inactive) | > 100 µM (inactive) | > 100 µM (inactive) | > 100 µM (inactive) | > 100 µM (inactive) | > 100 µM (inactive) | > 100 µM (inactive) | > 100 µM (inactive) | > 100 µM (inactive) | > 100 µM (inactive) | – | > 100 µM (inactive) | > 100 µM (inactive) |
